Counter-ions that a name gives are not always drawn.
Key:
[1] = test system: Her2 receptor expression at the surface of SKBr3 cells; experiment: phenotypic SKBr3/HER2 cell test (Her2 surface expression by flow cytometry); assay type: cell-based; details: Homo sapiens, SK-BR-3, 24 h incubation, inhibition of Her2 expression
Method: The cellular activity of the compounds can in particular be evaluated by means of the phenotypic “SKBr3/HER2” cell test described below:
The SKBr3 […] adenocarcinoma cells, overexpressing the Her2 tyrosine kinase receptor, originate from the ATCC (HTB-30) and are cultured in McCoy's 5A medium supplemented with 10% FBS and 1% L-glutamine.
The cells are seeded in 12-well plates at a proportion of 125 000 cells per well in 1 ml of complete medium. The following day, the products are added at varying concentrations. After incubation for 24 h, the cells are trypsinized, washed with PBS and incubated with 100 ng of anti-Her2 antibody coupled to PE (Phycoerythrin) (BD 340552) for 30 minutes at 4° C. in the dark. The fluorescence due to the expression of the Her2 receptor at the surface of the cells is then read using a FACS Calibur flow cytometer (Becton-Dickinson). The percentage inhibition of Her2 expression as a function of the concentrations of product tested is fitted by the nonlinear regression technique (XLfit, equation 205) in order to measure an IC50 for each product.

Hsp82 = Hsp82 (Saccharomyces cerevisiae, UniProt P02829); experiment: Hsp82/ATPase test (malachite green or PK/LDH coupled method); assay type: biochemical; details: 1 μM Hsp82, 250 μM ATP, 37° C.; read-out: Hsp82 ATPase IC50
Method: The biochemical activity of the compounds can in particular be evaluated by means of the “Hsp82/ATPase” test described below: The inorganic phosphate released during the hydrolysis of ATP by the ATPase activity of Hsp82 is quantified by the malachite green method. In the presence of this reagent, formation of the inorganic phosphate-molybdate-malachite green complex, which absorbs at a wavelength of 620 nm, occurs. The products to be evaluated are incubated in a reaction volume of 30 μl, in the presence of 1 μM Hsp82 and of 250 μM of substrate (ATP) in a buffer composed of 50 mM Hepes-NaOH (pH 7.5), 1 mM DTT, 5 mM MgCl2 and 50 mM KCl at 37° C. for 60 min. In parallel, an inorganic phosphate range of between 1 and 40 μM is made up in the same buffer. […] After incubation at ambient temperature for 20 min, the absorbance of the various wells is measured using a microplate reader at 620 nm. The inorganic phosphate concentration of each sample is then calculated from the standard curve. The ATPase activity of Hsp82 is expressed as concentration of inorganic phosphate produced in 60 minutes. The effect of the various products tested is expressed as percentage inhibition of the ATPase activity. The formation of ADP due to the ATPase activity of Hsp82 was used to develop another method for evaluating the enzyme activity of this enzyme by application of an enzymatic coupling system involving pyruvate kinase (PK) and lactate dehydrogenase (LDH). In this kinetic-type spectrophotometric method, PK catalyses the formation of ATP and of pyruvate from phosphoenol pyruvate (PEP) and the ADP produced by Hsp82. The pyruvate formed, which is a substrate for LDH, is subsequently converted to lactate in the presence of NADH. In this case, the decrease in the NADH concentration, measured through the decrease in absorbance at the wavelength of 340 nm, is proportional to the concentration of ADP produced by Hsp82. The products tested are incubated in a reaction volume of 100 μl of buffer composed of 100 mM Hepes-NaOH (pH 7.5), 5 mM MgCl2, 1 mM DTT, 150 mM KCl, 0.3 mM NADH, 2.5 mM PEP and 250 μM ATP. This mixture is preincubated at 37° C. for 30 minutes before the addition of 3.77 units of LDH and 3.77 units of PK. The reaction is initiated by addition of the product to be evaluated, in varying concentrations, and of Hsp82, at the concentration of 1 μM. The enzymatic activity of Hsp82 is then measured continuously, in a microplate reader, at 37° C., at the wavelength of 340 nm. The initial rate of the reaction is obtained by measuring the slope of the tangent to the origin of the curve recorded. The enzymatic activity is expressed in μM of ADP formed per minute. The effect of the various products tested is expressed as percentage inhibition of the ATPase activity according to the codification below: […]

Hsp82, sequence (P02829 whole entry): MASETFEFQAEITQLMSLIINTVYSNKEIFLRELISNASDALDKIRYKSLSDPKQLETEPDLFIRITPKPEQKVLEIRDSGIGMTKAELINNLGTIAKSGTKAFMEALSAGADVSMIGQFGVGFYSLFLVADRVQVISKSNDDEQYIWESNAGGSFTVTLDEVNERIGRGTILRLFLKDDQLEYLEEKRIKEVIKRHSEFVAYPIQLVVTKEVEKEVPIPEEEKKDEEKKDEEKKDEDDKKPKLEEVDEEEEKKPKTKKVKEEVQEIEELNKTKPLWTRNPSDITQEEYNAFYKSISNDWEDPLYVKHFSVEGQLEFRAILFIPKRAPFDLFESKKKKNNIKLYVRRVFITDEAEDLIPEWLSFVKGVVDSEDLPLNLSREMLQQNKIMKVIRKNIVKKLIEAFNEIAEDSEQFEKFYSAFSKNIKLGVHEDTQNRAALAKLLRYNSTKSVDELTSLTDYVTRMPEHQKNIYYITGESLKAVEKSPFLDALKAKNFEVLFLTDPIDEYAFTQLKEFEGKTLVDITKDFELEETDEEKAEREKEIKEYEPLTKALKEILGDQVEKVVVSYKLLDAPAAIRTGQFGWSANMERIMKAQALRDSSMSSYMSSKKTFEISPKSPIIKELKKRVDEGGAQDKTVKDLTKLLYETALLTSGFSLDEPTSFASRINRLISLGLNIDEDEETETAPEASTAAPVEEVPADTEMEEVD

IC50 [1] | IC50 (Hsp82) | SMILES
< 1000 nM | < 1000 nM | CC(O)CCNc1cc(-n2c3ccccc3c3c(-c4nc5ccc(F)cc5[nH]4)cccc32)ccc1C(N)=O (racemic) [Example 37, 4-[4-(6-fluoro-1H-benzimidazol-2-yl)-9H-carbazol-9-yl]-2-[3(R,S)hydroxybutylamino)benzamide]
< 1000 nM | < 1000 nM | CC(CCO)Nc1cc(-n2c3ccccc3c3c(-c4nc5ccc(F)cc5[nH]4)cccc32)ccc1C(N)=O (racemic) [Example 39]
< 1000 nM | < 1000 nM | CC(O)CNc1cc(-n2c3ccccc3c3c(-c4nc5ccc(F)cc5[nH]4)cccc32)ccc1C(N)=O (racemic) [Example 40, 4-[4-(6-fluoro-1H-benzimidazol-2-yl)-9H-carbazol-9-yl]-2-(2(R,S)-hydroxypropylamino)benzamide]
< 1000 nM | < 1000 nM | CC(CCO)Nc1cc(-n2c3ccccc3c3c(-c4cnc5ccccc5c4)cccc32)ccc1C(N)=O (racemic) [Example 41, 2-[1-hydroxybutan-3(R,S)-ylamino]-4-[4-(quinolin-3-yl)-9H-carbazol-9-yl]benzamide]
< 1000 nM | < 1000 nM | NCCCC[C@@H](N)C(=O)O[C@H]1CC[C@H](Nc2cc(-n3c4ccccc4c4c(-c5nc6ccc(F)cc6[nH]5)cccc43)ccc2C(N)=O)CC1 (stereo in doubt) [Example 36, trifluoroacetate of the 4-trans-{2-carbamoyl-5-[4(6-fluoro-1H-benzimidazol-2-yl)-9H-carbazol-9-yl]phenylamino}cyclohexyl ester of (S)-2,6-diaminohexanoic acid]
< 1000 nM | < 1000 nM | NC(=O)c1ccc(-n2c3ccccc3c3c(-c4nc5ccc(F)cc5[nH]4)cccc32)cc1N[C@H]1CC[C@H](O)CC1 [Example 1, 4-[4-(6-fluoro-1H-benzimidazol-2-yl)-9H-carbazol-9-yl]-2-(4-trans-hydroxycyclohexylamino)benzamide]
< 1000 nM | < 1000 nM | NC(=O)c1ccc(-n2c3ccccc3c3c(-c4cnc5ccccc5c4)cccc32)cc1N[C@H]1CC[C@H](O)CC1 [Example 2, 2-(4-trans-hydroxycyclohexylamino)-4-[(4-quinolin-3-yl)-9H-carbazol-9-yl]benzamide]
< 1000 nM | < 1000 nM | CCN(CC)CCNc1cc(-n2c3ccccc3c3c(-c4nc5ccc(F)cc5[nH]4)cccc32)ccc1C(N)=O [Example 3, 2-(2-diethylaminoethylamino)-4-[4-(6-fluoro-1H-benzimidazol-2-yl)-9H-carbazol-9-yl]benzamide]
< 1000 nM | < 1000 nM | NC(=O)c1ccc(-n2c3ccccc3c3c(-c4nc5ccncc5[nH]4)cccc32)cc1N[C@H]1CC[C@H](O)CC1 [Example 4, 2-(4-trans-hydroxycyclohexylamino)-4-[4-(3H-imidazo[4,5-c]pyridin-2-yl)-9H-carbazol-9-yl]benzamide]
< 1000 nM | 1000 to 10000 nM | CC(=O)O[C@H]1CC[C@H](Nc2cc(-n3c4ccccc4c4c(-c5nc6ccc(F)cc6[nH]5)cccc43)ccc2C(N)=O)CC1 [Example 5, acetic acid 4-{2-carbamoyl-5-[4-(6-fluoro-1H-benzimidazol-2-yl)-9H-carbazol-9-yl]phenylamino}-trans-cyclohexyl ester]
< 1000 nM | 1000 to 10000 nM | NC(=O)c1ccc(-n2c3ccccc3c3c(-c4nc5ccc(F)cc5[nH]4)cccc32)cc1NC1CCCCC1 [Example 6, 2-cyclohexylamino-4-[4-(6-fluoro-1H-benzimidazol-2-yl)-9H-carbazol-9-yl]benzamide]
< 1000 nM | < 1000 nM | NC(=O)c1ccc(-n2c3ccccc3c3c(-c4nc5ccc(F)cc5[nH]4)cccc32)cc1NCCOCCO [Example 7, 4-[4-(6-fluoro-1H-benzimidazol-2-yl)-9H-carbazol-9-yl]-2-[2-(2-hydroxyethoxy)ethylamino]benzamide]
< 1000 nM | < 1000 nM | NC(=O)c1ccc(-n2c3ccccc3c3c(-c4nc5ccc(F)cc5[nH]4)cccc32)cc1NCCCO [Example 8, 4-[4-(6-fluoro-1H-benzimidazol-2-yl)-9H-carbazol-9-yl]-2-(3-hydroxypropylamino)benzamide]
< 1000 nM | 1000 to 10000 nM | NC(=O)c1ccc(-n2c3ccccc3c3c(-c4nc5ccc(F)cc5[nH]4)cccc32)cc1N[C@H]1CC[C@@H](O)CC1 [Example 9, 4-[4-(6-fluoro-1H-benzimidazol-2-yl)-9H-carbazol-9-yl]-2-(4-cis-hydroxycyclohexylamino)benzamide]
1000 to 10000 nM | < 1000 nM | NC(=O)c1ccc(-n2c3ccccc3c3c(-c4nc5cc(F)ccc5[nH]4)cccc32)cc1N [Example 10, 2-amino-4-[4-(6-fluoro-1H-benzimidazol-2-yl)-9H-carbazol-9-yl]benzamide]
< 1000 nM | < 1000 nM | NC(=O)c1ccc(-n2c3ccccc3c3c(-c4nc5ccc(F)cc5[nH]4)cccc32)cc1NCCN1CCCC1 [Example 11, 4-[4-(6-fluoro-1H-benzimidazol-2-yl)-9H-carbazol-9-yl]-2-(2-pyrrolidin-1-ylethylamino)benzamide]
– | < 1000 nM | NC(=O)c1ccc(-n2c3ccccc3c3c(-c4cnc(N)nc4)cccc32)cc1NCCCO [Example 56, 4-[4-(2-aminopyrimidin-5-yl)-9H-carbazol-9-yl]-2-[(3-hydroxypropyl)amino]benzamide hydrochloride]
< 1000 nM | – | N#Cc1ccc(-c2cccc3c2c2ccccc2n3-c2ccc(C(N)=O)c(NCCF)c2)cn1 [Example 134, 4-[4-(6-cyanopyridin-3-yl)-9H-carbazol-9-yl]-2-[(2-fluoroethyl)amino]benzamide]
< 1000 nM | – | NC(=O)c1ncc(-n2c3ccccc3c3c(-c4nc5ccc(F)cc5[nH]4)cccc32)cc1NC1CCOCC1 [Example 136]
< 1000 nM | – | NC(=O)c1cnc(-n2c3ccccc3c3c(-c4cnc5ccccc5c4)cccc32)cc1NC1CCOCC1 [Example 137]
< 1000 nM | – | CC(C)(O)CNc1cc(-n2c3ccccc3c3c(-c4cnc5ccccc5c4)cccc32)cnc1C(N)=O [Example 139]
< 1000 nM | – | CN(C)CC(=O)O[C@H]1CC[C@H](Nc2cc(-n3c4ccccc4c4c(-c5nc6ccc(F)cc6[nH]5)cccc43)ccc2C(N)=O)CC1 [Example 140, dimethylaminoacetic acid 4-trans-{2-carbamoyl-5-[4(6-fluoro-1H-benzimidazol-2-yl)carbazol-9-yl]phenylamino}cyclohexyl ester]
< 1000 nM | – | NC(=O)c1ccc(-n2c3ccccc3c3c(-c4cncc(O)c4)cccc32)cc1NCCCO [Example 141, 2-[(3-hydroxypropyl)amino]-4-[4-(5-hydroxypyridin-3-yl)-9H-carbazol-9-yl]benzamide]
< 1000 nM | – | NC(=O)c1cnc(-n2c3ccccc3c3c(-c4cnc5ccccc5c4)cccc32)cc1N[C@H]1CC[C@H](O)CC1 [Example 142, 2-[4-(quinolin-3-yl)-9H-carbazol-9-yl]-4-(4-trans-hydroxycyclohexylamino)pyridine-5-carboxamide]

SMILES | IC50 [1] | IC50 (Hsp82)
CN1C2CCC1CC(Nc1cc(-n3c4ccccc4c4c(-c5ccc(C#N)nc5)cccc43)ccc1C(N)=O)C2 (centres unmarked) [Example 135, 4-[4-(6-cyanopyridin-3-yl)-9H-carbazol-9-yl]-2-[(8-methyl-8-azabicyclo[3.2.1]oct-3-yl)amino]benzamide] | < 1000 nM | –
